Here are results for five compounds from PMC6272137, “Synthesis and Evaluation of Paeonol Derivatives as Potential Multifunctional Agents for the Treatment of Alzheimer’s Disease” (Molecules, 2015).

A word on the IC50: it is the concentration needed to halve the response being measured.

Read-outs that look alike come from different tables or passages of the source.

One data set concerns PC12 cells. Briefly: Protection of PC12 cells against H2O2-induced cell death (MTT assay). Particulars: then 150 μM H2O2 for 5 h; for cell morphology (phase-contrast microscopy): 40 µM compound, 3 h preincubation.
Data set [1] in a line: DPPH free radical scavenging assay. As to conditions: read-out: DPPH Scavenging (IC50), concentration causing 50% loss of initial DPPH free radical, mean ± SD, n = 3, 60 min, methanol. On the technique in general: DPPH is a stable violet radical that fades when it is reduced.
Procedure: Based on their interaction with DPPH (2,2-diphenyl-1-picrylhydrazyl) free radical, antioxidant activities of the new paeonol derivatives were screened. […] Paeonol is used as the positive control.
The stable radical DPPH was used as a reagent in this spectrophotometric assay. […] After a 60 min incubation period at room temperature in the dark, the absorbance was read at 517 nm against the corresponding blank. Inhibition of free radical DPPH in percent (I%) was calculated using the following Equation (1): (1) I%=(Ablank−Asample/Ablank)×100 Where Ablank is the absorbance of DPPH solution (control solution) against the blank, and Asample is the absorbance of the tested compound against the blank. Concentrations caused 50% loss of the initial DPPH free radical scavenging.
Another data set addresses T1, AChE from electric eel (Electrophorus electricus, UniProt O42275).
T1 construct: purchased Sigma Aldrich
The experiment in a line: biochemical. As to conditions: n = 3, pH 8.0, 37 °C, read-out: AChE Inhibition (IC50). The procedure:
Acetylcholinesterase (AChE, E.C.3.1.1.7, from the electric eel), 5,5'-dithiobis-(2-nitrobenzoic acid) (DTNB), acetylthiocholine iodide (ATCI) and donepezil hydrochloride were purchased from Sigma Aldrich. […] Paeonol and 5a–5d were dissolved in DMSO and then diluted by phosphate buffer (pH 8.0) to seven different concentrations in the range of 10^−3–10^−9 M. AChE solutions were prepared in double-distilled water to 2.0 units/mL in 2 mL aliquots. The assay medium contained phosphate buffer, pH 8.0 (1 mL), 50 µL of 0.01 M DTNB, 10 µL of enzyme and 50 µL of acetylthiocholine iodide. Test compounds were added to assay solution and preincubated at 37 °C with enzyme for 15 min, followed by the addition of substrate. Activity was determined by measuring the increase in absorbance at 412 nm at 1 min intervals at 37 ± 0.2 °C. For determining the blank value, 50 µL buffer replaced the AChE solution.

T1 sequence (O42275 24-633): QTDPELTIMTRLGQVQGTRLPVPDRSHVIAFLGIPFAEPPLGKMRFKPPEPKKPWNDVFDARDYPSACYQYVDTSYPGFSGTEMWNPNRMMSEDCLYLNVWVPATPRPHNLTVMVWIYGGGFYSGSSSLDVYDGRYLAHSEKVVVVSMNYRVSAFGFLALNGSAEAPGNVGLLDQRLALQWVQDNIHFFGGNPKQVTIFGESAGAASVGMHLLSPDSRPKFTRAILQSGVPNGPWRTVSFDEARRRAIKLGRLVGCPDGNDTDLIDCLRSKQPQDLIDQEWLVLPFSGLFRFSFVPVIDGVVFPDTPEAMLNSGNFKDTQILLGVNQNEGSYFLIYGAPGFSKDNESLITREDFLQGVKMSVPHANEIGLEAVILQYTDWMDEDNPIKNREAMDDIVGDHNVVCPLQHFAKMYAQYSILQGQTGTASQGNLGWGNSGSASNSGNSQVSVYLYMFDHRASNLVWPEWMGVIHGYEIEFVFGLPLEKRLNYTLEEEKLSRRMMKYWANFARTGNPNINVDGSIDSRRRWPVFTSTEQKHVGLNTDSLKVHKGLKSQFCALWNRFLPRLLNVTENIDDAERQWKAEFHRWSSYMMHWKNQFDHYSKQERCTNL

For the compound `COc1ccc(C(=O)CN2CCN(Cc3ccc(C)cc3)CC2)c(O)c1` [5b, 1-(2-Hydroxy-4-methoxyphenyl)-2-(4-(4-methylbenzyl)piperazin-1-yl) ethanone], the “cell morphology (phase-contrast microscopy)” value in the data set with PC12 cells was “maintained normal cell morphology”. Also, the IC50 in data set [1] was found to be 158 ± 6.88 µM; at AChE from electric eel it was 610 ± 9 nM.
Take `COc1ccc(C(C)=O)c(O)c1` [Paeonol, 2-hydroxy-4-methoxy-acetophenone]: in the data set on PC12 cells (5 μM compound, 3 h pretreatment), the “protective effect on PC12 cells (MTT)” value is on record as “did not cause any apparent effects”. For the same compound, the “cell morphology (phase-contrast microscopy)” value in the data set with PC12 cells is “maintained normal cell morphology”. The “protective effect (cell viability, MTT)” value in the data set on PC12 cells (40 μM compound, 3 h pretreatment, control cells = 100%) was determined as 58.9%. For the same compound, the values for the IC50 in data set [1] and in data set [1] (listed as paeonol) were 310 ± 5.41 µM and 310 µM, respectively.
Regarding `COc1ccc(C(=O)CN2CCN(Cc3ccc([N+](=O)[O-])cc3)CC2)c(O)c1` [5c, 1-(2-Hydroxy-4-methoxyphenyl)-2-(4-(4-nitrobenzyl)piperazin-1-yl) ethanone], the IC50 was 192 ± 8.06 µM in data set [1] and 7040 ± 32 nM on AChE from electric eel.
Taken in the same sequence, the figures for `COc1ccc(C(=O)CN2CCN(Cc3ccc(Cl)cc3)CC2)c(O)c1` [5d, 2-(4-(4-Chlorobenzyl)piperazin-1-yl)-1-(2-hydroxy-4-methoxypheny) ethanone] were 187 ± 13.7 µM and 2630 ± 153 nM.
Taken in the same sequence, the figures for `COc1ccc(C(=O)CN2CCN(Cc3ccccc3)CC2)c(O)c1` [5a, 2-(4-Benzylpiperazin-1-yl)-1-(2-hydroxy-4-methoxyphenyl) ethanone] were 143 ± 8.83 µM and 1590 ± 11 nM.
